Legend:
human plasma = assay: Activated partial thromboplastin time (APTT) test, human plasma; type: biochemical; details: for Increase in Coagulation Time: increase in coagulation time (seconds) from a 1 μg/ml increase in concentration, linear regression, pooled plasma from 90 donors; for anticoagulant activity (in words): APTT test; for Relative Increase in Coagulation Time: Human plasma, vs untreated control; for Coagulation Time: PI-88 8.6 μg/ml
Excerpt: Heparin (anticoagulant activity 120 U/mg) is included for comparison. Data obtained with pooled plasma from 90 donors, the coagulation time of the plasma being 30.8 seconds in the absence of inhibitors. Results representative of four separate experiments. Table 1 summarises the anticoagulant activity of 19 sulfated oligosaccharides, as measured by the activated partial thromboplastin time (APTT) test. Similar results were obtained with the thrombin time test. […] Chain length, monosaccharide makeup and linkage, all appear to be critical factors. […] Furthermore, a striking feature of the maltose series is that chain elongation y a single residue from the maltotetraose to maltopentaose results in a 19-fold increase in anticoagulant activity. […] The glucose series of oligosaccharides emphasizes the importance of monosaccharide linkage on activity. […] There are additional, more subtle, effects of monosaccharide linkage on anticoagulant activity. […] Values | obtained from a linear regression analysis of the coagulation data. |^a Coagulation times estimated using the APTT test. Similar results | were obtained in duplicate assays. Concentrations of heparin and | mannopentaose phosphate SO4 (PI-88) were used which prolonged the |^a Coagulation times estimated by the APTT test. Data expressed as fold | increase in coagulation time induced by the anticoagulant compared with | untreated control.

marmoset plasma = assay: APTT test, marmoset plasma; type: biochemical; details: for Relative Increase in Coagulation Time: APTT, Marmoset plasma, vs untreated control
Excerpt: (§1) Some additional biological properties of one of the sulfated oligosaccharides, PI-88, were defined. […] Protamine is frequently used clinically to reverse the anticoagulant effects of heparin and Fragmin. […] Finally, PI-88 was examined for its ability to act as an anticoagulant in a range of mammalian species. […] Thus, sulfated oligosaccharides potentially can be used as anticoagulants/antithrombotics not only in humans but in a wide range of mammalian species.
(§2) ^a Coagulation times estimated by the APTT test. Data expressed as fold
(§3) increase in coagulation time induced by the anticoagulant compared with […]

sheep plasma = assay: APTT test, sheep plasma; type: biochemical; details: for Relative Increase in Coagulation Time: APTT, Sheep plasma, vs untreated control
Excerpt: as §1, §2, §3

rabbit plasma = assay: APTT test, rabbit plasma; type: biochemical; details: for Relative Increase in Coagulation Time: APTT, Rabbit plasma, vs untreated control
Excerpt: as §1, §2, §3

dog plasma = assay: APTT test, dog plasma; type: biochemical; details: for Relative Increase in Coagulation Time: APTT, Dog plasma, vs untreated control
Excerpt: as §1, §2, §3

rat plasma = assay: APTT test, rat plasma; type: biochemical; details: for Relative Increase in Coagulation Time: APTT, Rat plasma, vs untreated control
Excerpt: as §1, §2, §3

mouse plasma = assay: APTT test, mouse plasma; type: biochemical; details: for Relative Increase in Coagulation Time: APTT, Mouse plasma, vs untreated control
Excerpt: as §1, §2, §3

Human platelet = assay: Collagen- or ADP-induced platelet aggregation (platelet aggregometer); type: cell-based; details: for Relative Rate of Platelet Aggregation, ADP-induced Aggregation: ADP 10 μM, control without PI-88 81 ± 1; for Relative Rate of Platelet Aggregation, ADP-induced Aggregation / Relative Rate of Platelet Aggregation, Collagen-induced Aggregation: ± SD; for Relative Rate of Platelet Aggregation, Collagen-induced Aggregation: collagen 9 μg/ml, control without PI-88 114 ± 8
Protocol: ^a Human platelet aggregation induced by either collagen (9 μg/ml)
or ADP (10 μM) and relative rates of platelet aggregation estimated, in
the presence or absence of PI-88, using a platelet aggregometer. Data ±
SD representative of two platelet donors.

thrombin = assay: Anti-thrombin III mediated anti-thrombin activity, chromogenic assays; type: biochemical
Excerpt: (§4) The manner by which the sulfated oligosaccharides inhibit the coagulation cascade was then investigated.

factor Xa = assay: Anti-thrombin III mediated anti-factor Xa activity, chromogenic (Helena) anti-Xa assay; type: biochemical; details: FIG. 3
Protocol: Factor Xa activity was determined with the chromogenic (Helena) anti-Xa assay run on a Roche COBAS Fara biochemistry analyser.
as §4

heparin cofactor II = assay: Plasma free system: purified heparin cofactor II, thrombin and chromogenic thrombin substrate; type: biochemical; details: data not shown
Excerpt: as §4

[1] = Inactivation of anticoagulant activity by protamine; type: biochemical
Excerpt: as §1

## O=S(=O)(O)OC[C@H]1O[C@@](COS(=O)(=O)O)(O[C@H]2O[C@H](COS(=O)(=O)O)[C@@H](OS(=O)(=O)O)[C@H](OS(=O)(=O)O)[C@H]2OS(=O)(=O)O)[C@@H](OS(=O)(=O)O)[C@@H]1OS(=O)(=O)O [Sucrose SO4]
Human plasma; APTT
  Increase in Coagulation Time: 0.39 s/µg

## Cellohexaose SO4
Human plasma; APTT
  Increase in Coagulation Time: 4.8 s/µg

## Cellopentaose SO4
Human plasma; APTT
  Increase in Coagulation Time: 3.5 s/µg

## Cellotetraose SO4
Human plasma
  anticoagulant activity (in words): reasonably potent anticoagulant
Human plasma; APTT
  Increase in Coagulation Time: 4.2 s/µg

## Chitosan hexamer SO4
Human plasma
  anticoagulant activity (in words): negligible anticoagulant activity
Human plasma; APTT
  Increase in Coagulation Time: 0.4 s/µg

## Isomaltohexaose SO4
Human plasma; APTT
  Increase in Coagulation Time: 6.56 s/µg

## Isomaltopentaose SO4
Human plasma
  anticoagulant activity (in words): substantially less effective anticoagulant
Human plasma; APTT
  Increase in Coagulation Time: 1.85 s/µg

## Laminariheptaose SO4
Human plasma; APTT
  Increase in Coagulation Time: 0.5 s/µg

## Laminarihexaose SO4
Human plasma; APTT
  Increase in Coagulation Time: 0.9 s/µg

## Laminaritetraose SO4
Human plasma; APTT
  Increase in Coagulation Time: 2.9 s/µg

## Maltoetraose SO4
Human plasma; APTT
  Increase in Coagulation Time: 0.28 s/µg

## Maltoheptaose SO4
Human plasma
  anticoagulant activity (in words): quite effective anticoagulants
Human plasma; APTT
  Increase in Coagulation Time: 5.9 s/µg

## Maltohexaose SO4
Human plasma
  anticoagulant activity (in words): quite effective anticoagulants
Human plasma; APTT
  Increase in Coagulation Time: 5.85 s/µg

## Maltopentaose SO4
Human plasma
  anticoagulant activity (in words): quite effective anticoagulants
Human plasma; APTT
  Increase in Coagulation Time: 5.25 s/µg
Human plasma; APTT, relative to the maltotetraose sulfate
  increase in anticoagulant activity on chain elongation from maltotetraose to maltopentaose: 19 fold

## Maltose SO4
Human plasma; APTT
  Increase in Coagulation Time: 0.31 s/µg

## Maltotriose SO4
Human plasma; APTT
  Increase in Coagulation Time: 0.25 s/µg

## Mannopentaose SO4
Human plasma; APTT
  Increase in Coagulation Time: 5.32 s/µg

## Mannopentaose phosphate SO2 (PI-88)
Human plasma; APTT
  Increase in Coagulation Time: 5.67 s/µg

## Mannopentaose phosphate SO4 (PI-88)
Human plasma; APTT
  Increase in Coagulation Time: 5.04 s/µg

## mannopentaose phosphate sulfate [PI-88]
Human plasma; APTT, PI-88 2.24 μg/ml
  Relative Increase in Coagulation Time: 1.42 fold
Human plasma; APTT, PI-88 22.4 μg/ml
  Relative Increase in Coagulation Time: 4.65 fold
Human plasma; APTT, Mean ± SD of 20 normal donors
  Coagulation Time: 88.3 ± 11.9 s
Human plasma; APTT, Normal Donor 1
  Coagulation Time: 77.3 s
Human plasma; APTT, Normal Donor 2
  Coagulation Time: 89.6 s
Human plasma; APTT, Normal Donor 3
  Coagulation Time: 94.0 s
Human plasma; APTT, Normal Donor 4
  Coagulation Time: 85.6 s
Human plasma; APTT, Normal Donor 5
  Coagulation Time: 101.9 s
Human plasma; APTT, Normal Donor 6
  Coagulation Time: 95.0 s
Human plasma; APTT, Normal Donor 7
  Coagulation Time: 115.3 s
Human plasma; APTT, Normal Donor 8
  Coagulation Time: 101.9 s
Human plasma; APTT, Normal Donor 9
  Coagulation Time: 85.2 s
Human plasma; APTT, Normal Donor 10
  Coagulation Time: 78.0 s
Human plasma; APTT, Normal Donor 11
  Coagulation Time: 93.6 s
Human plasma; APTT, Normal Donor 12
  Coagulation Time: 82.9 s
Human plasma; APTT, Normal Donor 13
  Coagulation Time: 85.5 s
Human plasma; APTT, Normal Donor 14
  Coagulation Time: 89.7 s
Human plasma; APTT, Normal Donor 15
  Coagulation Time: 81.2 s
Human plasma; APTT, Normal Donor 16
  Coagulation Time: 72.6 s
Human plasma; APTT, Normal Donor 17
  Coagulation Time: 108.0 s
Human plasma; APTT, Normal Donor 18
  Coagulation Time: 70.4 s
Human plasma; APTT, Normal Donor 19
  Coagulation Time: 93.6 s
Human plasma; APTT, Normal Donor 20
  Coagulation Time: 72.6 s
Human plasma; human plasma
  ability to act as an anticoagulant (in words): effective anticoagulant
Marmoset plasma; PI-88 2.24 μg/ml
  Relative Increase in Coagulation Time: 1.40 fold
Marmoset plasma; PI-88 22.4 μg/ml
  Relative Increase in Coagulation Time: 2.86 fold
Marmoset plasma; marmoset plasma
  ability to act as an anticoagulant (in words): effective anticoagulant
Sheep plasma; PI-88 2.24 μg/ml
  Relative Increase in Coagulation Time: 1.88 fold
Sheep plasma; PI-88 22.4 μg/ml
  Relative Increase in Coagulation Time: > 4.98 fold
Sheep plasma; sheep plasma
  ability to act as an anticoagulant (in words): effective anticoagulant
Rabbit plasma; PI-88 2.24 μg/ml
  Relative Increase in Coagulation Time: 1.02 fold
Rabbit plasma; PI-88 22.4 μg/ml
  Relative Increase in Coagulation Time: 1.20 fold
Rabbit plasma; rabbit plasma
  ability to act as an anticoagulant (in words): only weakly active
Dog plasma; PI-88 2.24 μg/ml
  Relative Increase in Coagulation Time: 1.24 fold
Dog plasma; PI-88 22.4 μg/ml
  Relative Increase in Coagulation Time: 2.42 fold
Dog plasma; dog plasma
  ability to act as an anticoagulant (in words): effective anticoagulant
Rat plasma; PI-88 2.24 μg/ml
  Relative Increase in Coagulation Time: 1.54 fold
Rat plasma; PI-88 22.4 μg/ml
  Relative Increase in Coagulation Time: > 5.88 fold
Rat plasma; rat plasma
  ability to act as an anticoagulant (in words): effective anticoagulant
Mouse plasma; PI-88 2.24 μg/ml
  Relative Increase in Coagulation Time: 1.13 fold
Mouse plasma; PI-88 22.4 μg/ml
  Relative Increase in Coagulation Time: 3.03 fold
Mouse plasma; mouse plasma
  ability to act as an anticoagulant (in words): effective anticoagulant
Human platelet
  inhibition of collagen- and ADP-induced platelet aggregation (in words): very weak inhibitor
Human platelet; PI-88 21 μg/ml
  Relative Rate of Platelet Aggregation, ADP-induced Aggregation: 74 ± 1
  Relative Rate of Platelet Aggregation, Collagen-induced Aggregation: 97 ± 8
Human platelet; PI-88 210 μg/ml
  Relative Rate of Platelet Aggregation, ADP-induced Aggregation: 72 ± 1
  Relative Rate of Platelet Aggregation, Collagen-induced Aggregation: 86 ± 10
Human platelet; PI-88 2100 μg/ml
  Relative Rate of Platelet Aggregation, ADP-induced Aggregation: 56 ± 2
  Relative Rate of Platelet Aggregation, Collagen-induced Aggregation: 79 ± 0
thrombin; initial studies
  enhancement of the ability of anti-thrombin III to inhibit thrombin (in words): did not enhance
thrombin; two different chromogenic assays, data not shown
  fold less active than heparin in enhancing anti-thrombin III mediated anti-thrombin activity: 700-7000 fold
Factor Xa
  fold less active than heparin or LMW heparin (Fragmin), anti-thrombin III mediated factor Xa inhibitory activity: 100-1000 fold
Heparin cofactor II
  enhancement of the ability of heparin cofactor II to inhibit thrombin (in words): as effectively as heparin and dermatan sulfate
[1]
  inactivation of the anticoagulant activity by protamine (in words): effectively inactivate
